Reference: patent US20060183773A1, “Uses of methylphenidate derivatives” (priority 2005, published 2006)

Experiments:
Format in all cases: cell-based, human
IL-8 = IL-8 release by TNFα-stimulated HUVECs, ELISA; details: for Mean IL-8: 18 hours, TNFα + water 35572; for IL-8 release stimulated by TNFα (in words): HUVECs, Cpd II 1-30 μg/ml, MP 15 μg/ml, Dex and LY 294002 10 μM
Method: Passage 4 HUVECs, human source lot number 8710 (obtained from ATCC), were put into the wells of a 24-well tissue culture plate at 5,000 cells/well in EGM-2 medium (obtained from Cambrex) and cultured for 72 hours at 37° C. and 5% CO2. […] After incubation for 1 hour at 37° C. and 5% CO2, TNFα (obtained from Pierce) was added to give a final concentration of 10 ng/ml, and the cells were incubated for an additional 18 hours at 37° C. and 5% CO2. After this incubation, the supernatants were collected, and the amount of IL-8 in the supernatants determined by ELISA as described in Example 4.

NFκB = assay: Activated NFκB in VEGF-treated HUVECs, TransAM assay; details: for Mean OD 450 nm (NFκB): control 0.070, VEGF only 0.111
Method: Passage 5 HUVECs, human source lot number 8750 (obtained from ATCC), were grown to confluence in 25 cm^2 flasks in EGM-2 medium. The following additives were added to the flasks (total volume of 5 ml/flask) in EGM-2 medium containing 2% FCS, GA1000 (gentamycin), heparin and ascorbic acid (all from Cambrex): 1 μg/ml of the compound of formula II (Cpd II); 5 μg/ml Cpd II; 15 μg/ml of Cpd II; 15 μg/ml methylphenidate (MP); or 10 μM LY 294002. The flasks were incubated overnight at 37° C., 5% CO2 After this incubation, vascular endothelial growth factor (VEGF) (obtained from Sigma) was added to give a final concentration 10 ng/ml, and the flasks were incubated for an additional 30 minutes.
Then, the amount of NFκB was determined using a TransAM™ NFκB p65/NFκB p50 Transcription Factor Assay Kit and a Nuclear Extract Kit from Active Motif North America, Carlsbad, Calif., according to the manufacturer's instructions. Briefly, a nuclear extract of the cells was prepared using the Nuclear Extract Kit. Then, the nuclear extract was added to the wells of the 96-well plate of the TransAM™ kit. Oligonucleotide containing an NFκB consensus binding site was immobilized in the wells, and the activated NFκB contained in the nuclear extract was bound to the oligonucleotide. Then, an antibody directed against the NFκB p65 or p50 subunit was added, and the NFκB complex bound to the oligonucleotide was detected. A secondary antibody conjugated to horseradish peroxidase (HRP) was next added to provide a colorimetric readout that was quantified by spectrophotometry (measurement at 450 nm).

[1] = system: peripheral blood lymphocytes (PBL); assay: PBL proliferation, Promega cell titer assay; details: for proliferation of PBL (OD at 530 nm): Dex 10 μM; for proliferation of PBL stimulated with PHA (OD at 530 nm): donor GR283
Method: Whole blood was drawn from GR283, a human volunteer with known allergies, into a glass vacutainer tube containing no anticoagulant. This blood was allowed to clot, and the serum was removed by centrifugation and then heat inactivated by placing it in a water bath at 56° C. for 30 minutes. Whole blood from GR283 was also drawn into a glass vacutainer tube containing heparin and used for peripheral blood lymphocytes (PBL) isolation as follows. Whole blood was layered over room temperature Histopaque 1077 solution and centrifuged at 2000 rpm for 15 minutes at room temperature. Cells at the plasma-Histopaque interface were then removed and washed with culture medium (IMDM medium with 10% heat-inactivated GR283 serum plus 1% penicillin/streptomycin) at 37° C.
Then, GR283's PBL in culture medium were added to the wells to give a final concentration of 150,000 cells per well, and the plates were incubated at 37° C., 5% CO2 for 24 hours. After this incubation, phytohemagglutinin (PHA) in culture medium was added to give final concentrations of 2 μg/ml, 5 μg/ml or 20 μg/ml, final total volume of 200 μl/well, and the cells were incubated for an additional 72 hours at 37° C., 5% CO2. All cultures were performed in triplicate.
Cell proliferation was assayed by adding 20 μl of Promega cell titer solution to each well and incubating the plate for an additional 4 hours. Promega cell titer solution is a solution containing a tetrazolium dye that is reduced by living cells to a formazan dye, and this reduction is proportional to the number of living cells present in the well. After the 4-hour incubation, the optical density (OD) at 530 nm of each well was measured. The OD at 530 nm for blank wells containing no cells was subtracted from the OD of the experimental wells.
Then, GR467's PBL in culture medium were added to the wells to give a final concentration of 150,000 cells per well, and the plates were incubated at 37° C., 5% CO2 for 24 hours. After this incubation, PHA was added to give a final concentration of 2 μg/ml, final total volume of 200 μl/well, and the cells were incubated for an additional 72 hours at 37° C., 5% CO2. All cultures were performed in triplicate.
Then, GR191's PBL in culture medium were added to the wells to give a final concentration of 150,000 cells per well, and the plates were incubated at 37° C., 5% CO2 for 24 hours. After this incubation, PHA was added to give final concentrations of 2 μg/ml and 5 μg/ml, final total volume of 200 μl/well, and the cells were incubated for an additional 72 hours at 37° C., 5% CO2. All cultures were performed in triplicate.

Row | SMILES | Mean IL-8 (IL-8; 10 ng/ml TNFα + 1 μg/ml) [pg/mL] | Mean IL-8 (IL-8; 10 ng/ml TNFα + 5 μg/ml) [pg/mL] | Mean IL-8 (IL-8; 10 ng/ml TNFα + 10 μg/ml) [pg/mL] | Mean IL-8 (IL-8; 10 ng/ml TNFα + 15 μg/ml) [pg/mL] | Mean IL-8 (IL-8; 10 ng/ml TNFα + 30 μg/ml) [pg/mL] | IL-8 release stimulated by TNFα (in words) (IL-8) | Mean OD 450 nm (NFκB) (NFκB; VEGF 10 ng/ml + 1 μg/ml) | Mean OD 450 nm (NFκB) (NFκB; VEGF 10 ng/ml + 5 μg/ml) | Mean OD 450 nm (NFκB) (NFκB; VEGF 10 ng/ml + 15 μg/ml) | amount of activated NFκB (in words) (NFκB; VEGF, 15 μg/ml and 5 μg/ml) | proliferation of PBL (OD at 530 nm) ([1]; donor GR191, unstimulated and PHA 2, 5 μg/ml, Cpd II 5, 15, 25, 50 μg/ml, MP 50 μg/ml, FIGS. 5A-B) | proliferation of PBL stimulated with PHA (OD at 530 nm) ([1]; PHA 2, 5, 20 μg/ml, Cpd II 5, 15, 50 μg/ml, Dex 10 μg/ml, FIGS. 1A-C) | proliferation of PBL (OD at 530 nm) ([1]; donor GR467, unstimulated and 2 μg/ml PHA, Cpd II 5, 15, 25 μg/ml, MP 15 μg/ml, FIG. 2) | proliferation of PBL stimulated with PHA (OD at 530 nm) ([1]; methylphenidate at the other dose / PHA combinations) | proliferation of PBL stimulated with PHA (OD at 530 nm) ([1]; methylphenidate highest dose (50 μg/ml), lowest PHA dose (2 μg/ml))
1 | COC(=O)C(c1ccc(-c2ccccc2)cc1)C1CCCCN1 (stereo not drawn) [Cpd II] | 53657 ± 3935.18 | 34482 ± 2127.22 | 22050 ± 727.27 | 20817 ± 674.63 | 4829.8 ± 214.13 | decreased IL-8 release stimulated by TNFα in a dose-dependent manner | 0.097 ± 0.013 | 0.065 ± 0.010 | 0.060 ± 0.008 | reduced the amount of activated NFκB back to basal levels | significantly inhibited the proliferation of PBL, both unstimulated and stimulated with PHA | significantly inhibited the proliferation of PBL stimulated with PHA in a dose-dependent manner | significantly inhibited the proliferation of PBL, both unstimulated and stimulated with PHA | – | –
2 | COC(=O)C(c1ccccc1)C1CCCCN1 (stereo not drawn) [methylphenidate] | – | – | – | 30183 ± 3448.01 | – | slightly decreased IL-8 release | – | – | 0.093 ± 0.011 | – | – | – | – | did not significantly reduce the proliferation of the PHA-stimulated PBL | showed a significant effect at its highest dose and the lowest PHA dose
